Assay results: US9975846B2, “Multivalent compounds for use in the treatment and prevention of brain damage” (MEDICORTEX FINLAND OY, priority 2014, dated 2018)

What was measured:
[1] = tested on: MPTP mouse model of Parkinson's disease; assay: MPTP mouse model of Parkinson's disease: dopaminergic system protection; format: in vivo; details: MPTP 4 x 15 mg/kg i.p.; daily i.p. for 14 days from Day 0; striatal tissue by HPLC
Protocol: In the model, depletion of striatal dopamine (DA) and dopaminergic neuronal death in the substantia nigra (SN) is caused by systemic administration of MPTP (1-methyl-4-phenyl-1,2,3,6-tetrahydropyridine). To be more specific, MPTP is administered twice daily, 3 hours apart, by i.p. injections on Day 0 and Day 1. Each dose is 15 mg/kg, the total dose being 60 mg/kg.
Each test compound, control or vehicle is administered by daily i.p. injections for 14 days starting from Day 0.
After euthanization on Day 14, blood samples are collected by cardiac punctures and stored at −80° C. for further analysis. Blood is removed from the brains by transcardial perfusion with saline. Posterior brain blocks containing the SN are then removed and processed for cryosectioning, while striata are dissected in toto, pooled, weighted, snap-frozen in liquid nitrogen, and stored at −80° C.
20-μm-thick coronal cryosections are analysed immunohistochemically for the expression of tyrosine hydroxylase (TH), a rate-limiting enzyme in dopamine synthesis by counting the number of TH-positive neurons bilaterally in the SN.
Striatal tissue samples are analysed for DA and its two metabolites, 3,4-dihydroxyphenylacetic acid (DOPAC) and homovanillic acid (HVA), levels by HPLC.

[2] = tested on: rat model of experimental closed head injury; assay: Rat model of experimental closed head injury: behaviour, brain edema, lesion volume, inflammatory markers; format: in vivo; details: oral 6 h post-injury
Protocol: A rat model of experimental closed head injury disclosed by Bilgen et al. (Neurorehabil. Neural Repair, 2005, 19:219-226) with some modifications is employed for testing the effect of the present compounds on behaviour, brain edema, lesion volume, and inflammatory markers after a head trauma.
Each test compound, control compound, or vehicle is administered orally 6 h post-injury.
In vivo T2 weighted magnetic resonance imaging (MRI) is performed on the animals to depict the pathologies, including lesion size, tissue viability, and brain edema, of the resulting injuries in the corresponding neuronal tissues at 24 h and day 3.
Behavioral tests, including a seven-point neuroscore test modified from Zausinger et al. (Brain Res., 2000, 863:94-105), are used to assess motor and behavioural deficits by a blinded investigator at baseline and on days 1, 3, 7, 14, and 28 post-injury. Additionally, sensimotor recovery of forelimb and hindlimb responses to tactile and proprioceptive stimulation is evaluated by a limb-placing test essentially as described by Jolkkonen et al. in Restor. Neurol. Neurosci., 2000, 17:211-216.
After euthanization, histological evaluation of the injury in the cortex and hippocampus is performed. Additionally, inflammatory markers, astrocytic and microglial activation is evaluated by immunohistochemistry.

[3] = tested on: mouse model of experimental closed head injury; assay: Mouse model of experimental closed head injury: cognitive rehabilitation after traumatic brain injury; format: in vivo; details: closed head injury by weight-drop; s.c. from day 8 onwards, three times a week; behavioral tests at baseline, day 7, day 30
Protocol: A mouse model of experimental closed head injury disclosed by Yatsiv et al. in FASEB J. 2005, 19:1701-1703 is employed for testing the efficacy of the present compounds to improve functional recovery after a head trauma caused by a weight-drop onto an exposed skull.
Severity of the injury is assessed according to the Neurological Severity Score disclosed by Beni-Adani et al. (J. Pharmacol. Exp. Ther. 2001, 296:57-63) on the basis of ten individual tasks reflecting motor function, alertness, and behaviour.
Each test compound, control compound, or vehicle is administered subcutaneously from day 8 onwards, three times a week.
Behavioral tests, including open field (OF), elevated plus maze (EMP), and social recognition tests are carried out at baseline, on day 7, and day 30.
After euthanization, plasma levels of cytokines and TBI-specific biomarkers, such as S100B, are determined and the brains are evaluated histologically.

MPTP model = assay: Modified MPTP mouse model: dopaminergic system protection and behavioral skills; format: in vivo, mice; details: MPTP 4 x 10 mg/kg i.p. Day 1; s.c. three times a week Day 2 to Day 21; rotarod, pole, social recognition tests
Protocol: In this administration scheme, mice are injected i.p. four times with a MPTP dose of 10 mg/kg, two hours apart, on Day 1. Each test compound, control and vehicle are administered s.c. three times a week from Day 2 until Day 21. The present compounds are administered either alone or in combination with a non-steroidal anti-inflammatory drug, antioxidant, and/or metal ions chelate. One week prior to the MPTP dosing, the mice are trained for a rotarod performance test for three days. The rotarod test is then repeated four times during the course of the experiment. Motor performance and coordination is also tested by a pole test. Social recognition test is conducted once on the last days of the experiment.

[4] = T2 weighted MRI at 24 h and day 3

Which “protection of the dopaminergic system from reduction of striatal DA levels caused by MPTP” value [1] does the source give for `CCCCC/C=C\C/C=C\CCCCCCCC(=O)Nc1ccc(OC(=O)c2cccc(O)c2O)c(OCCOc2ccccc2OC(=O)c2cccc(O)c2O)c1` [TBI-446, 2-(2-(2-((2,3-dihydroxybenzoyl)oxy)-5-((9Z,12Z)-octadeca-9,12-dienamido)phenoxy)ethoxy)phenyl 2,3-dihydroxybenzoate] here?
Its value is “protect the dopaminergic system from the reduction of the DA levels”.

And the “brain edema after closed head injury” value [2, 4]?
Its value is “decreased”.

And the “lesion volume after closed head injury” value [2, 4]?
Its value is “decreased”.

What about the “levels of inflammatory markers” value ([2]; immunohistochemistry after euthanization) of the same molecule?
Its value is “decreased”.

What about the “cognitive rehabilitation of the mice” value [3] of the same molecule?
The value was “improved cognitive rehabilitation”.

And the behavioural recovery (MPTP model)?
The behavioural recovery was “behavioural recovery”.
